{"source": "ChEMBL document CHEMBL1155645", "about": "“Microbial transformations of the antimelanoma agent betulinic acid” (2000)"}
{"experiment": "Cytotoxicity against human Mel2 cells", "type": "functional", "details": "read-out: ED50 (the source's name)", "units": {"EC50": "mg/L"}}
{"smiles": "C=C(C)[C@@H]1CC[C@]2(C(=O)O)CC[C@]3(C)[C@H](CC[C@@H]4[C@@]5(C)[C@H](O)C[C@H](O)C(C)(C)[C@@H]5C[C@H](O)[C@]43C)[C@@H]12", "EC50": "> 20"}
{"smiles": "C=C(C)[C@@H]1CC[C@]2(C(=O)O)CC[C@]3(C)[C@H](CC[C@@H]4[C@@]5(C)CC[C@H](O)C(C)(C)[C@@H]5CC[C@]43C)[C@@H]12", "note": "[BETULINIC ACID]", "EC50": 1}
{"smiles": "C=C(C)[C@@H]1CC[C@]2(C(=O)O)CC[C@]3(C)[C@H](CC[C@@H]4[C@@]5(C)CC[C@H](O)C(C)(C)[C@@H]5C[C@H](O)[C@]43C)[C@@H]12", "EC50": 7.2}
{"smiles": "C=C(C)[C@@H]1CC[C@]2(C(=O)O)CC[C@]3(C)[C@H](CC[C@@H]4[C@@]5(C)CCC(=O)C(C)(C)[C@@H]5CC[C@]43C)[C@@H]12", "note": "[BETUNOLIC ACID]", "EC50": 0.1}
{"smiles": "C=C(C)[C@@H]1CC[C@]2(C(=O)O)CC[C@]3(C)[C@H](CC[C@@H]4[C@@]5(C)CC[C@H](O)C(C)(C)[C@@H]5[C@@H](O)[C@H](O)[C@]43C)[C@@H]12", "EC50": 16.8}
{"experiment": "Cytotoxicity against human Mel1 cells", "type": "functional", "details": "read-out: ED50 (the source's name)", "units": {"EC50": "mg/L"}}
{"smiles": "C=C(C)[C@@H]1CC[C@]2(C(=O)O)CC[C@]3(C)[C@H](CC[C@@H]4[C@@]5(C)[C@H](O)C[C@H](O)C(C)(C)[C@@H]5C[C@H](O)[C@]43C)[C@@H]12", "EC50": "> 20"}
{"smiles": "C=C(C)[C@@H]1CC[C@]2(C(=O)O)CC[C@]3(C)[C@H](CC[C@@H]4[C@@]5(C)CC[C@H](O)C(C)(C)[C@@H]5CC[C@]43C)[C@@H]12", "note": "[BETULINIC ACID]", "EC50": 3.3}
{"smiles": "C=C(C)[C@@H]1CC[C@]2(C(=O)O)CC[C@]3(C)[C@H](CC[C@@H]4[C@@]5(C)CC[C@H](O)C(C)(C)[C@@H]5C[C@H](O)[C@]43C)[C@@H]12", "EC50": 17.1}
{"smiles": "C=C(C)[C@@H]1CC[C@]2(C(=O)O)CC[C@]3(C)[C@H](CC[C@@H]4[C@@]5(C)CCC(=O)C(C)(C)[C@@H]5CC[C@]43C)[C@@H]12", "note": "[BETUNOLIC ACID]", "EC50": 16}
{"smiles": "C=C(C)[C@@H]1CC[C@]2(C(=O)O)CC[C@]3(C)[C@H](CC[C@@H]4[C@@]5(C)CC[C@H](O)C(C)(C)[C@@H]5[C@@H](O)[C@H](O)[C@]43C)[C@@H]12", "EC50": 10.9}
